{
  "source": "patent US20130023504A1",
  "about": "“Modulation of Prostaglandin/Cyclooxygenase Metabolic Pathways” (HUNTER-FLEMING LIMITED, priority 2006, published 2013)",
  "assay_type_in_all_cases": "cell-based",
  "key": {"[1]": {"system": "human PBMC", "test": "PG levels (PGE2, PGD2, 15d-PGJ2) in culture medium of human PBMC cultured with and without TNF-α, EIA (Example 3)", "experimental": "(§1) Whole blood was collected from donors in EDTA-supplemented pouches at the Etablissement Français du Sang (Brest, France). The PBMC were isolated then from whole blood under sterile conditions within 36 hours after collection. Gradient density centrifugation was carried out on Ficoll (Eurobio). After washing in RPMI 1640 medium (Eurobio), cells were suspended in RPMI 1640 medium supplemented with 10% heat-inactivated fetal calf serum (Eurobio), 2 mM glutamine (D. Dutscher), 100 U of penicillin/ml (D. Dutscher), and 100 μg of streptomycin/ml (D. Dutscher). Monocytes were selected by plastic adherence for 1 h and approximately 10^7 cells were plated in 6-well tissue culture plates (3 mL medium per well). All incubations were performed in a humidified incubator at 37° C. and 5% CO2. Cells were recovered and dispersed in 2 ml fresh incubation medium supplemented with either 7β-hydroxyEPIA, 7β-hydroxy-DHEA, or 7α-hydroxy-DHEA (in 20 μL ethanol) in the presence or absence of 0.01 μg/mL TNF-α (Sigma-Aldrich). Control incubations contained 20 μl ethanol but no steroid. Supernatants were collected after 4 h and 24 hours incubations for measurement of their PG contents and cells were used for subsequent RNA isolation. A single step extraction method using the Trizol Reagent (Invitrogen, Cergy-Pontoise, France) provided total RNA.\nCommercially available EIA kits were used for the determination of PGE2 levels (Oxford Biomedical Research, UK) and 15d-PGJ2 levels (Assay designs, Euromedex, France) in culture media. Measurement of PGD2 levels was obtained using the prostaglandin D2-MOX EIA kit (Cayman Chemical, Euromedex). In this case, and prior to assay, the fresh samples were immediately treated with the MOX-HCl reagent, which converted PGD2 into PGD2-MOX, thus preventing any further chemical degradation.\n(§2) All assays were carried out in triplicate and results were plotted as mean±S.E.M. One-way analysis of variance was performed followed by Duncan's multiple range tests in order to compare the differences between groups. Differences were considered statistically significant when p<0.05."}, "[2]": {"system": "m-PGES1 mRNA", "test": "m-PGES1 mRNA in human PBMC with and without TNF-α, quantitative RT-PCR", "experimental": "as §1\n(§3) cDNAs were synthesized from TURBO DNase I—treated RNA (Ambion, Huntingdon, UK) using the Superscript first strand synthesis system kit (Invitrogen). RT-PCR amplification mixtures (50 μL) contained 2.5× RealMaster Mix/20×SYBR solution (11.25 μL) (Eppendorf, Le Pecq, France) and 200 nM forward and reverse primers. Reactions were run on a RealPlex ep gradient S mastercycler (Eppendorf). The cycling conditions were 10 minutes at 95° C. and 45 cycles at 95° C., 55° C. and 68° C. for 15 seconds, 30 seconds and 30 seconds, respectively. Each assay included a standard curve of four serial dilution points of control cDNA. The HPRT1 housekeeping gene was used for quantification. All oligonucleotide primers (Table 2) were synthesized by Genecust/Distribio (Evry, France). The specificity of the amplified product was monitored by examining the melting curve of the product and confirmed by analysis on agarose gel electrophoresis.\nas §2"}, "[3]": {"system": "COX-2 mRNA", "test": "COX-2 mRNA in human PBMC with and without TNF-α, quantitative RT-PCR", "experimental": "as §1, §3, §2"}, "[4]": {"settings": "100 nM + TNF-α (10 ng/mL), 24 h"}},
  "note": "Marks after values point to notes of the source that are not given here.",
  "data": [
    {"smiles": "CC12CCC3C(C1CCC2=O)[C@H](O)C=C1C[C@@H](O)CCC13C", "note": "(stereo partly drawn) [7α-hydroxy-DHEA, 7α-hydroxy-dehydroEPIAndrosterone]", "values": [
      {"measurement": "15d-PGJ2", "setting": "[1]; 1 nM + TNF-α (10 ng/mL), 4 h", "result": "0.37 ± 0.020", "unit": "ng/mL"},
      {"measurement": "PGD2", "setting": "[1]; 1 nM + TNF-α (10 ng/mL), 4 h", "result": "0.20 ± 0.003", "unit": "ng/mL"},
      {"measurement": "PGE2", "setting": "[1]; 1 nM + TNF-α (10 ng/mL), 4 h", "result": "0.43 ± 0.003", "unit": "ng/mL"},
      {"measurement": "15d-PGJ2", "setting": "[1]; 1 nM + TNF-α (10 ng/mL), 24 h", "result": "0.63 ± 0.007^d ng/mL"},
      {"measurement": "PGE2", "setting": "[1]; 1 nM + TNF-α (10 ng/mL), 24 h", "result": "1.53 ± 0.048^c ng/mL"},
      {"measurement": "15d-PGJ2", "setting": "[1]; 1 nM, 4 h, without TNF-α", "result": "0.46 ± 0.004", "unit": "ng/mL"},
      {"measurement": "PGD2", "setting": "[1]; 1 nM, 4 h, without TNF-α", "result": "0.17 ± 0.004", "unit": "ng/mL"},
      {"measurement": "PGE2", "setting": "[1]; 1 nM, 4 h, without TNF-α", "result": "0.22 ± 0.006", "unit": "ng/mL"},
      {"measurement": "15d-PGJ2", "setting": "[1]; 1 nM, 24 h, without TNF-α", "result": "0.51 ± 0.013^a ng/mL"},
      {"measurement": "PGD2", "setting": "[1]; 1 nM, 24 h, without TNF-α", "result": "0.13 ± 0.001", "unit": "ng/mL"},
      {"measurement": "PGE2", "setting": "[1]; 1 nM, 24 h, without TNF-α", "result": "0.23 ± 0.003", "unit": "ng/mL"},
      {"measurement": "15d-PGJ2", "setting": "[1]; 10 nM + TNF-α (10 ng/mL), 4 h", "result": "0.40 ± 0.004", "unit": "ng/mL"},
      {"measurement": "PGD2", "setting": "[1]; 10 nM + TNF-α (10 ng/mL), 4 h", "result": "0.17 ± 0.006", "unit": "ng/mL"},
      {"measurement": "PGE2", "setting": "[1]; 10 nM + TNF-α (10 ng/mL), 4 h", "result": "0.45 ± 0.012", "unit": "ng/mL"},
      {"measurement": "15d-PGJ2", "setting": "[1]; 10 nM + TNF-α (10 ng/mL), 24 h", "result": "0.71 ± 0.012^d ng/mL"},
      {"measurement": "PGE2", "setting": "[1]; 10 nM + TNF-α (10 ng/mL), 24 h", "result": "1.75 ± 0.052^c ng/mL"},
      {"measurement": "15d-PGJ2", "setting": "[1]; 10 nM, 4 h, without TNF-α", "result": "0.42 ± 0.010", "unit": "ng/mL"},
      {"measurement": "PGD2", "setting": "[1]; 10 nM, 4 h, without TNF-α", "result": "0.18 ± 0.002", "unit": "ng/mL"},
      {"measurement": "PGE2", "setting": "[1]; 10 nM, 4 h, without TNF-α", "result": "0.22 ± 0.006", "unit": "ng/mL"},
      {"measurement": "15d-PGJ2", "setting": "[1]; 10 nM, 24 h, without TNF-α", "result": "0.59 ± 0.003^a ng/mL"},
      {"measurement": "PGD2", "setting": "[1]; 10 nM, 24 h, without TNF-α", "result": "0.17 ± 0.003", "unit": "ng/mL"},
      {"measurement": "PGE2", "setting": "[1]; 10 nM, 24 h, without TNF-α", "result": "0.30 ± 0.006", "unit": "ng/mL"},
      {"measurement": "15d-PGJ2", "setting": "[1]; 100 nM + TNF-α (10 ng/mL), 4 h", "result": "0.41 ± 0.021", "unit": "ng/mL"},
      {"measurement": "PGD2", "setting": "[1]; 100 nM + TNF-α (10 ng/mL), 4 h", "result": "0.18 ± 0.001", "unit": "ng/mL"},
      {"measurement": "PGE2", "setting": "[1]; 100 nM + TNF-α (10 ng/mL), 4 h", "result": "0.39 ± 0.009", "unit": "ng/mL"},
      {"measurement": "15d-PGJ2", "setting": "[1]; [4]", "result": "0.51 ± 0.012^d ng/mL"},
      {"measurement": "PGE2", "setting": "[1]; [4]", "result": "1.40 ± 0.037^c ng/mL"},
      {"measurement": "15d-PGJ2", "setting": "[1]; 100 nM, 4 h, without TNF-α", "result": "0.41 ± 0.004", "unit": "ng/mL"},
      {"measurement": "PGD2", "setting": "[1]; 100 nM, 4 h, without TNF-α", "result": "0.17 ± 0.003", "unit": "ng/mL"},
      {"measurement": "PGE2", "setting": "[1]; 100 nM, 4 h, without TNF-α", "result": "0.22 ± 0.005", "unit": "ng/mL"},
      {"measurement": "15d-PGJ2", "setting": "[1]; 100 nM, 24 h, without TNF-α", "result": "0.58 ± 0.024^a ng/mL"},
      {"measurement": "PGD2", "setting": "[1]; 100 nM, 24 h, without TNF-α", "result": "0.13 ± 0.002", "unit": "ng/mL"},
      {"measurement": "PGE2", "setting": "[1]; 100 nM, 24 h, without TNF-α", "result": "0.25 ± 0.012", "unit": "ng/mL"},
      {"measurement": "mPGES1 (mRNA), mRNA production relative to controls", "setting": "[2]; 1 nM + TNF-α (10 ng/mL), 24 h", "result": "21.5 ± 6.66^a"},
      {"measurement": "mPGES1 (mRNA), mRNA production relative to controls", "setting": "[2]; 1 nM, 4 h, without TNF-α", "result": "0.76 ± 0.053"},
      {"measurement": "mPGES1 (mRNA), mRNA production relative to controls", "setting": "[2]; 1 nM, 24 h, without TNF-α", "result": "1.77 ± 0.324^a"},
      {"measurement": "mPGES1 (mRNA), mRNA production relative to controls", "setting": "[2]; 10 nM + TNF-α (10 ng/mL), 24 h", "result": "24.9 ± 10.30^a"},
      {"measurement": "mPGES1 (mRNA), mRNA production relative to controls", "setting": "[2]; 10 nM, 4 h, without TNF-α", "result": "0.94 ± 0.067"},
      {"measurement": "mPGES1 (mRNA), mRNA production relative to controls", "setting": "[2]; 10 nM, 24 h, without TNF-α", "result": "3.61 ± 0.662^a"},
      {"measurement": "mPGES1 (mRNA), mRNA production relative to controls", "setting": "[2]; [4]", "result": "25.4 ± 6.96^a"},
      {"measurement": "mPGES1 (mRNA), mRNA production relative to controls", "setting": "[2]; 100 nM, 4 h, without TNF-α", "result": "0.71 ± 0.058"},
      {"measurement": "mPGES1 (mRNA), mRNA production relative to controls", "setting": "[2]; 100 nM, 24 h, without TNF-α", "result": "2.63 ± 0.475^a"},
      {"measurement": "COX-2 (mRNA), mRNA production relative to controls", "setting": "[3]; 1 nM + TNF-α (10 ng/mL), 4 h", "result": "4.72 ± 1.229^a"},
      {"measurement": "COX-2 (mRNA), mRNA production relative to controls", "setting": "[3]; 1 nM, 4 h, without TNF-α", "result": "0.56 ± 0.072^b"},
      {"measurement": "COX-2 (mRNA), mRNA production relative to controls", "setting": "[3]; 1 nM, 24 h, without TNF-α", "result": "0.82 ± 0.27^b"},
      {"measurement": "COX-2 (mRNA), mRNA production relative to controls", "setting": "[3]; 10 nM + TNF-α (10 ng/mL), 4 h", "result": "3.70 ± 1.246^a"},
      {"measurement": "COX-2 (mRNA), mRNA production relative to controls", "setting": "[3]; 10 nM, 4 h, without TNF-α", "result": "0.94 ± 0.048"},
      {"measurement": "COX-2 (mRNA), mRNA production relative to controls", "setting": "[3]; 10 nM, 24 h, without TNF-α", "result": "1.66 ± 0.408^a"},
      {"measurement": "COX-2 (mRNA), mRNA production relative to controls", "setting": "[3]; 100 nM, 4 h, without TNF-α", "result": "1.10 ± 0.108"},
      {"measurement": "COX-2 (mRNA), mRNA production relative to controls", "setting": "[3]; 100 nM, 24 h, without TNF-α", "result": "1.05 ± 0.214"}
    ]}
  ]
}
